Results from US5324648A, “Substituted isocoumarins as serine protease inhibitors and anti-inflammatory agents” (Georgia Tech Research Corporation, priority 1992, dated 1994).
Read-outs that look alike come from different tables or passages of the source.

Assays:
bovine thrombin = biological target: T1, bovine thrombin (Bos taurus, UniProt P00735); test: Inactivation rate of bovine thrombin; type: biochemical; conditions: Table VIII; pH 7.5, 25° C; [I] 1.2-54 μM; read-out: kobs/[I]
T1 construct: bovine thrombin
In short: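 First-order kobs came from ln(vt/vo)-versus-time plots of remaining activity, measured on timed aliquots with thioester or nitroanilide substrates. Enzyme at 0.01-2.3 μM was preincubated with inhibitor at 25° C in pH 7.5 Hepes/0.01M CaCl2 buffer containing 8-12% Me2SO.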

human thrombin = biological target: T2, human thrombin (Homo sapiens, UniProt P00734); test: Inactivation rate of human thrombin; type: biochemical; conditions: Table VIII; pH 7.5, 25° C; [I] 1.2-54 μM; read-out: kobs/[I]
T2 construct: human thrombin
Experimental: (§1) Inactivation rates of serine proteases by substituted isocoumarins were measured by the incubation method. An aliquot of inhibitor (25 or 50 μl) in Me2 SO was added to a buffered enzyme solution (0.01-2.3 μM) to initiate the inactivation. Aliquots (50 μl) were withdrawn at various intervals and the residual enzymatic activity was measured. Me2 SO concentration in the reaction mixture was 8-12% (v/v). 0.1 Hepes, 0.01M CaCl2, pH 7.5 buffer was utilized for trypsin and coagulation enzymes. 0.1M Hepes, 0.5M NaCl, pH 7.5 was utilized for other serine proteases. The inhibitor concentrations are shown in all the tables. Peptide thioesters or peptide nitroanilides with appropriate sequence were used as substrates for various serine proteases. All peptide thioester hydrolysis rates were measured with assay mixtures containing 4,4'-dithiodipyridine (ε324 =19800M^-1 cm^-1; Grasetti & Murray, Arch. Biochem. Biophys. 119, pp 41-49 (1967)). Peptide 4-nitroanilide nitroanilide hydrolysis was measured at 410 nm (ε410 =8800M^-1 cm^-1; Erlanger et al., Arch. Biochem. Biophys. 95, pp 271-278 (1961)). First order inactivation rate constant (kobs) were obtained from plots of ln (vt /vo) vs time, and the correlation coefficients were greater than 0.98.
(§2) ^a Inhibition rates were measured in 0.1M Hepes, 0.01M CaCl2, pH
(§3) 7.5 buffer, 8% Me2 SO and at 25° C.

[1] = biological target: T3, porcine pancreatic elastase (PPE) (Sus scrofa, UniProt P00772); test: Inactivation of porcine pancreatic elastase (PPE); type: biochemical; conditions: Table X; after 20 min incubation
T3 construct: from tissue; host or cells: porcine pancreas (from the name)
T3 sequence (P00772 27-266): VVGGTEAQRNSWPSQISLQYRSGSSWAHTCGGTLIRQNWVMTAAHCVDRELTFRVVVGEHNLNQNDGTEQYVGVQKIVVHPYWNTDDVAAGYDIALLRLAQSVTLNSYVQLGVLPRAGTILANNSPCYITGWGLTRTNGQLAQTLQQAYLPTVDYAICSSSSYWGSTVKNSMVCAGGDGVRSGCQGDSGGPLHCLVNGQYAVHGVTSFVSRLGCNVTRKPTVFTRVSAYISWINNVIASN

[2] = biological target: T4, human leukocyte elastase (HLE) (Homo sapiens, UniProt P08246); test: Inactivation of human leukocyte elastase (HLE); type: biochemical; conditions: Table X; for kinact/KI: pH 7.5, biphasic inhibition
T4 construct: from tissue; host or cells: human leukocytes (from the name)
T4 sequence (P08246 30-267): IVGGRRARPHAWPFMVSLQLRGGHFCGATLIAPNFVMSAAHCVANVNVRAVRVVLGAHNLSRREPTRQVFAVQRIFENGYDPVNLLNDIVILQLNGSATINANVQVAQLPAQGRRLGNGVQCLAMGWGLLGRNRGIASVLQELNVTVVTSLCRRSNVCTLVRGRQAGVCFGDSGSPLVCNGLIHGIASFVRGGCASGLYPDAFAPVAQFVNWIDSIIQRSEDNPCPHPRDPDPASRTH
Experimental: Inactivation rates of serine proteases by substituted isocoumarins were measured by the incubation method. An aliquot of inhibitor (25 or 50 μl) in Me2 SO was added to a buffered enzyme solution (0.01-2.3 μM) to initiate the inactivation. Aliquots (50 μl) were withdrawn at various intervals and the residual enzymatic activity was measured. Me2 SO concentration in the reaction mixture was 8-12% (v/v). 0.1 Hepes, 0.01M CaCl2, pH 7.5 buffer was utilized for trypsin and coagulation enzymes. 0.1M Hepes, 0.5M NaCl, pH 7.5 was utilized for other serine proteases. […] Peptide thioesters or peptide nitroanilides with appropriate sequence were used as substrates for various serine proteases. All peptide thioester hydrolysis rates were measured with assay mixtures containing 4,4'-dithiodipyridine (ε324 =19800M^-1 cm^-1 ; Grasetti & Murray, Arch. Biochem. Biophys. 119, pp 41-49 (1967)). Peptide 4-nitroanilide nitroanilide hydrolysis was measured at 410 nm (ε410 =8800M^-1 cm^-1 ; Erlanger et al., Arch. Biochem. Biophys. 95, pp 271-278 (1961)). First order inactivation rate constant (kobs) were obtained from plots of ln (vt /vo) vs time, and the correlation coefficients were greater than 0.98.
^a Inactivation rates were measured at 0.1M Hepes, 0.5 NaCl, pH 7.5,
8-12% Me2 SO and 25° C. by incubation method.
^a Inhibition rates were measured in 0.1M Hepes, 0.05M NaCl, pH 7.5
buffer, 8-9% Me2 SO and at 25° C.
^a Inhibition constants were in 0.1M Hepes, 0.5M NaCl, pH 7.5 buffer,
8-9% Me2 SO and at 25° C.
^a Inhibition rates were measured in 0.1M Hepes, 0.5M NaCl, 2.5%
Me2 SO, pH 7,5 and at 25° C.
^a Inhibition was measured in 0.1M Hepes, 0.5M NaCl, pH 7.5 buffer,
5-10% Me2 SO and at 25° C. Suc--Val--Pro--Phe--NA (0.48 mM)
was used as the substrate for chymotrypsin and cat G.
^a Inhibition rates were measured in 0.1M Hepes, 0.5M NaCl, pH 7.5

chymotrypsin = chymotrypsin (Bos taurus, UniProt P00766); test: Inactivation of chymotrypsin; type: biochemical, bovine; conditions: Table X; pH 7.5, 25° C; [I] 0.9-43 μM; read-out: kobs/[I]
cathepsin G = biological target: T5, cathepsin G (Homo sapiens, UniProt P08311); test: Inactivation of cathepsin G; type: biochemical; conditions: Table X; pH 7.5, 25° C; [I] 33-46 μM; read-out: kobs/[I]
T5 construct: from tissue; host or cells: human leukocytes
T5 sequence (P08311 21-255): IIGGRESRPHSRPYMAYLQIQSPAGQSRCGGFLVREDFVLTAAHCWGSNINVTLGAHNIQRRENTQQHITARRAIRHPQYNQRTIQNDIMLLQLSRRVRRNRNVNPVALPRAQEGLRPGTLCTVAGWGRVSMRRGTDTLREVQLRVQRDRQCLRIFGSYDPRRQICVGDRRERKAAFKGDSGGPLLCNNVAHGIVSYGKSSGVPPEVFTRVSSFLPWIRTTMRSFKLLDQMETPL

human plasmin = biological target: T6, human plasmin (Homo sapiens, UniProt P00747); test: Inactivation rate of human plasmin; type: biochemical; conditions: Table IX; 0.01M CaCl2, pH 7.5, 25° C; [I] 8.3-41 μM; read-out: kobs/[I]
T6 construct: human plasmin; from tissue; host or cells: human plasma
T6 sequence (P00747 581-810 limits assumed): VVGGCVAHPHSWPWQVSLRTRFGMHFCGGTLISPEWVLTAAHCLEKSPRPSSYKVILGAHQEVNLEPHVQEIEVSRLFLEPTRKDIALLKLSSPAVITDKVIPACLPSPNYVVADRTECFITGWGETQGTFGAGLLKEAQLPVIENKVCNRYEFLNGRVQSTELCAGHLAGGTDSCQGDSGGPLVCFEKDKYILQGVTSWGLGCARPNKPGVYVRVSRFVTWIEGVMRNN
T6 sequence (P00747 97-580 partner limits assumed): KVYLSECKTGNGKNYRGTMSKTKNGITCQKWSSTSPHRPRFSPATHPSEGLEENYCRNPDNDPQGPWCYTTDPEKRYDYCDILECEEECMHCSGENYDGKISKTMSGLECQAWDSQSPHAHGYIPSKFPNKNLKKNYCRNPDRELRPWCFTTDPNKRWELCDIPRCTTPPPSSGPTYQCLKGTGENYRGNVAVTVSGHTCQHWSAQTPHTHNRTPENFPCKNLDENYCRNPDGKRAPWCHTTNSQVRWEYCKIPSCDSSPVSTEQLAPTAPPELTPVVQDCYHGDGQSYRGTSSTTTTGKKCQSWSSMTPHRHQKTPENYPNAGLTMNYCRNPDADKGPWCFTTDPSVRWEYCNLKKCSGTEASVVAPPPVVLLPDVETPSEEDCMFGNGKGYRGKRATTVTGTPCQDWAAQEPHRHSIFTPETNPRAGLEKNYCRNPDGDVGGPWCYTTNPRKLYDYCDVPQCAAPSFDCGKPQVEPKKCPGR

pig plasma [3] = test: Prothrombin time (PT), pig plasma; conditions: [I] 32 μM
pig plasma [4] = test: Activated partial thromboplastin time (APTT), pig plasma; conditions: [I] 32 μM
human factor Xa = biological target: T7, human factor Xa (Homo sapiens, UniProt P00742); test: Inactivation rate of human factor Xa; type: biochemical; conditions: Table VIII; pH 7.5, 25° C; [I] 3.6-44 μM; read-out: kobs/[I]
T7 construct: human factor Xa
T7 sequence (P00742 235-488 limits assumed): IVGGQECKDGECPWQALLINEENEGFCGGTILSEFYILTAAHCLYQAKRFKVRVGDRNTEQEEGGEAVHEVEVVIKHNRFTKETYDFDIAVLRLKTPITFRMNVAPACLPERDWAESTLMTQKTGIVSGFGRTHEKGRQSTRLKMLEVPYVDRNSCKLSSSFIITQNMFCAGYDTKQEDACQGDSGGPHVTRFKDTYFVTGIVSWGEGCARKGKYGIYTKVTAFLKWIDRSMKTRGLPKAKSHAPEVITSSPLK
T7 sequence (P00742 41-179 partner limits assumed): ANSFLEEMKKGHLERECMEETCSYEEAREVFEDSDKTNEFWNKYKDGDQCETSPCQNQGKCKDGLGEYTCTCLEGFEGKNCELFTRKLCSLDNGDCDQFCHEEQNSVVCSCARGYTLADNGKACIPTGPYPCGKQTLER
Experimental: as §1
(§4) ^a Conditions were as 0.1M Hepes, 0.01M CaCl2, pH 7.5 and 8-12%
(§5) Me2 SO and 25° C. Rate constants were measured by incubation
(§6) method unless otherwise noted. An aliquot of inhibitor was added to an
(§7) enzyme solution and aliquots removed with time and assayed for remaining
(§8) enzymatic activity. Firstorder rate constants, kobs were obtained
(§9) from the plots of ln(vt /vo) versus time.
as §2, §3

human factor XIa = biological target: T8, human factor XIa (Homo sapiens, UniProt P03951); test: Inactivation rate of human factor XIa; type: biochemical; conditions: Table VIII; pH 7.5, 25° C; [I] 0.7-0.8 μM; read-out: kobs/[I]
T8 construct: human factor XIa
T8 sequence (P03951 388-625 limits assumed): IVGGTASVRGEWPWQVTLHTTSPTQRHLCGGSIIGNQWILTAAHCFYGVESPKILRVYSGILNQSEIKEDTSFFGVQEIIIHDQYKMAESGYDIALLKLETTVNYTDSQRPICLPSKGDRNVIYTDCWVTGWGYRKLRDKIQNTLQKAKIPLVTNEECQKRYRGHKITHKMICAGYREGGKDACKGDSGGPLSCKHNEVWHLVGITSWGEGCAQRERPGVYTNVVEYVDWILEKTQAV
T8 sequence (P03951 19-387 partner limits assumed): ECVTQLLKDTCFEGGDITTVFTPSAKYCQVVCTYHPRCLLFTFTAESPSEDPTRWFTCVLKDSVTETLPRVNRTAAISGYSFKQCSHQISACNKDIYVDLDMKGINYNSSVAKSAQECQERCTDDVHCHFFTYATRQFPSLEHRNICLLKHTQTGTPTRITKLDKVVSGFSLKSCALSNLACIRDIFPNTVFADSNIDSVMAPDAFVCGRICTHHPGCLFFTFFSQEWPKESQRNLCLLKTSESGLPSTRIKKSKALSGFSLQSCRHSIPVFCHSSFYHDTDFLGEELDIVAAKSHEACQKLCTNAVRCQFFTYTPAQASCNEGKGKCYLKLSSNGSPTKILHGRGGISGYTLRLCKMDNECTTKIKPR
Experimental: as §1, §4, §5, §6, §7, §8, §9, §2, §3

human factor XIIa = biological target: T9, human factor XIIa (Homo sapiens, UniProt P00748); test: Inactivation rate of human factor XIIa; type: biochemical; conditions: Table VIII; pH 7.5, 25° C; [I] 3.6-4.9 μM; read-out: kobs/[I]
T9 construct: human factor XIIa
T9 sequence (P00748 373-615 limits assumed): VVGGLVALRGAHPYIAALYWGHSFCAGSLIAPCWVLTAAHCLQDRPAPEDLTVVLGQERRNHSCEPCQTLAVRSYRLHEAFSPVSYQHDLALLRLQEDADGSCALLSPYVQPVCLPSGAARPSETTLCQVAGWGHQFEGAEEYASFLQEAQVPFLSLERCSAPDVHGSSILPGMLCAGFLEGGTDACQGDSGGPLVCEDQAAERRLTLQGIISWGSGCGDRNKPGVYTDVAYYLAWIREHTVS
T9 sequence (P00748 20-372 partner limits assumed): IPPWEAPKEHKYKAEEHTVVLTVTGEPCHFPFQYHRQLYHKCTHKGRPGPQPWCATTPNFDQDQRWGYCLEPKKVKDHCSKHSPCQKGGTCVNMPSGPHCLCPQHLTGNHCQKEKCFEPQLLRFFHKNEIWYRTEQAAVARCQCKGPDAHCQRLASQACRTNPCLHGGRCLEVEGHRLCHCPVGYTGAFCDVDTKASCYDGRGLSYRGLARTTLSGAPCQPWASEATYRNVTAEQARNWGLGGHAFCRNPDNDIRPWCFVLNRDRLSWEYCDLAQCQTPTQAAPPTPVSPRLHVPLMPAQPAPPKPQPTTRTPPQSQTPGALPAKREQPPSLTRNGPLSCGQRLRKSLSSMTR
Experimental: as §1, §4, §5, §6, §7, §8, §9, §2, §3

human lung tryptase = test: Inactivation rate of human lung tryptase; type: biochemical; conditions: Table IX; pH 7.5, 25° C; [I] 0.42-0.47 μM
Experimental: as §1
(§10) ^a Inactivation rates were measured at 0.1M Hepes, 0.5M NaCl, pH 7.5
(§11) buffer, 8% Me2 SO and 25° C.
as §2
(§12) 7.5 buffer for human plasmin; 25 mM Phosphate, 0.5M NaCl, 1 mM EDTA, pH
(§13) 7.5 buffer for rat skin tryptase and 0.1M Hepes, 0.5M NaCl, pH 7.5 for
(§14) human lung tryptase, human skin tryptase and rt-PA. All enzymes were
(§15) assayed with ZArg-SBzl (0.07 mM) in the presence of 4,4dithiodipyridine
(§16) (0.33 mM). Reaction mixtures contained 8% Me2 SO and assays were […]

rat skin tryptase = biological target: T10, rat skin tryptase (Rattus norvegicus, UniProt P27435); test: Inactivation rate of rat skin tryptase; type: biochemical; conditions: pH 7.5, Table IX; pH 7.5, 25° C; [I] 0.42-0.51 μM; read-out: kobs/[I]
T10 construct: from tissue; host or cells: rat skin
T10 sequence (P27435 29-273): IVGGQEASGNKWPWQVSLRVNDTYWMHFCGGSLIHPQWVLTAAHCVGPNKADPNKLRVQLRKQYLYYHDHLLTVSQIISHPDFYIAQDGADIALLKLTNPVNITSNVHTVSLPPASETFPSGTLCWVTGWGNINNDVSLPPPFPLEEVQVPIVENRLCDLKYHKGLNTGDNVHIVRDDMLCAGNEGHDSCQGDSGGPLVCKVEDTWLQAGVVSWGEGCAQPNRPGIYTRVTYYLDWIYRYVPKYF
Experimental: as §1
^b Inactivation rates were measured at 25 mM phosphate, 0.5M NaCl, 1
mM EDTA, pH 7.5 buffer, 9% Me2 SO and 25° C.
as §2, §12, §13, §14, §15, §16

[5] = biological target: recombinant human tissue plasminogen activator (Homo sapiens, UniProt P00750); test: Inactivation rate of recombinant human tissue plasminogen activator; type: biochemical; conditions: pH 7.5, Table IX; pH 7.5, 25° C; [I] 3.5-5.0 μM; read-out: kobs/[I]
Chain of recombinant human tissue plasminogen activator (P00750 36-562): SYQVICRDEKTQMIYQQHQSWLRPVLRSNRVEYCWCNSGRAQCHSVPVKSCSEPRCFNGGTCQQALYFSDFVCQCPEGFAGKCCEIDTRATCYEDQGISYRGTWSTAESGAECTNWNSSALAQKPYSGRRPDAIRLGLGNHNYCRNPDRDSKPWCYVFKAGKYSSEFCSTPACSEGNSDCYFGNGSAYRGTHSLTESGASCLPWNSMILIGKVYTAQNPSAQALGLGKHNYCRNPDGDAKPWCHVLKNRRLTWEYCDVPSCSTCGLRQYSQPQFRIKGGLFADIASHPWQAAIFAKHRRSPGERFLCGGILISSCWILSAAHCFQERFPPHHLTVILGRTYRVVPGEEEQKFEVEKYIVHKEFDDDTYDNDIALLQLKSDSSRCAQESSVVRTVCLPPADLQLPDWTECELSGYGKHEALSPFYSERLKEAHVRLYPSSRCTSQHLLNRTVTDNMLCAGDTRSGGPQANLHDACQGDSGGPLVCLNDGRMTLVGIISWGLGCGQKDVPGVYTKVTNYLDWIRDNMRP
Experimental: as §1
^a Inactivation constants were measured at 0.1M Hepes, 0.5M NaCl (or
as §2, §12, §13, §14, §15, §16

complement protein D = complement protein D (Homo sapiens, UniProt P00746); test: Inactivation rate of complement protein D; type: biochemical; conditions: Table II; pH 7.5, 25° C; [I] 0.05 to 1.29 mM
Chain of complement protein D (P00746 26-253): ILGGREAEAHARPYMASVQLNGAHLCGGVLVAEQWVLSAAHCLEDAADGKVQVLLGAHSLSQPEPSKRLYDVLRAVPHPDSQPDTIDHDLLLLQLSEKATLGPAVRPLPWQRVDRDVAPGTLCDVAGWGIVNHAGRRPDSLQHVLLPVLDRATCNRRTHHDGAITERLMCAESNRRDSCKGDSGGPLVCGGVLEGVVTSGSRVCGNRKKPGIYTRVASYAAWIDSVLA
Experimental: as §1
(§17) ^a Conditions were 0.1M Hepes, 0.5M NaCl, pH 7.5, 8-10% Me2 SO
(§18) and 25° C. Inactivation rates were measured by incubation method.
(§19) Enzyme concentrations were as follows: protein D, 1-9 μM; C2, 0.7-1
(§20) μM; B, 1.8 μM; Bb, 0.3-0.8 μM; Cl^- s, 0.07 μM; Cl^-

complement protein C2 = biological target: T11, complement protein C2 (Homo sapiens, UniProt P06681); test: Inactivation rate of complement protein C2; type: biochemical
T11 sequence (P06681 21-752): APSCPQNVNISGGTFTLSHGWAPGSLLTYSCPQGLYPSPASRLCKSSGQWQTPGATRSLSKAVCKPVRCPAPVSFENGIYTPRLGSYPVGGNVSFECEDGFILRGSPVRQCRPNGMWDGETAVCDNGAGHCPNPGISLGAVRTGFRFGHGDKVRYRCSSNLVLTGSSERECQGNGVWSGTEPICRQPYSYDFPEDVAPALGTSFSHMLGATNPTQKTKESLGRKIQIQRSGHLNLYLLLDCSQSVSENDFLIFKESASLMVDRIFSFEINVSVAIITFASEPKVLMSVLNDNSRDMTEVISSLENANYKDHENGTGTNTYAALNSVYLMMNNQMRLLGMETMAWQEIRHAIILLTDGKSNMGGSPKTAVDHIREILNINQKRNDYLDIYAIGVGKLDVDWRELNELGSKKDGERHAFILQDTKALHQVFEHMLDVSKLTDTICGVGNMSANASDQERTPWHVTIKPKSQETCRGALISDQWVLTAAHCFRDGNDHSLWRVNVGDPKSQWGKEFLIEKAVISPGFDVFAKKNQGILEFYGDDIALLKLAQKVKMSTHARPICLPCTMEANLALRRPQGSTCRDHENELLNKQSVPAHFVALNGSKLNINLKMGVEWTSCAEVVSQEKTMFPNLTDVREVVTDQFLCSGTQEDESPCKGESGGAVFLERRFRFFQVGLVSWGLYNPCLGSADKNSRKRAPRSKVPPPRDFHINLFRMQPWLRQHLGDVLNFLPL
Experimental: as §1, §17, §18, §19, §20

complement protein B = complement protein B (Homo sapiens, UniProt P00751); test: Inactivation rate of complement protein B; type: biochemical
Chain of complement protein B (P00751 26-764): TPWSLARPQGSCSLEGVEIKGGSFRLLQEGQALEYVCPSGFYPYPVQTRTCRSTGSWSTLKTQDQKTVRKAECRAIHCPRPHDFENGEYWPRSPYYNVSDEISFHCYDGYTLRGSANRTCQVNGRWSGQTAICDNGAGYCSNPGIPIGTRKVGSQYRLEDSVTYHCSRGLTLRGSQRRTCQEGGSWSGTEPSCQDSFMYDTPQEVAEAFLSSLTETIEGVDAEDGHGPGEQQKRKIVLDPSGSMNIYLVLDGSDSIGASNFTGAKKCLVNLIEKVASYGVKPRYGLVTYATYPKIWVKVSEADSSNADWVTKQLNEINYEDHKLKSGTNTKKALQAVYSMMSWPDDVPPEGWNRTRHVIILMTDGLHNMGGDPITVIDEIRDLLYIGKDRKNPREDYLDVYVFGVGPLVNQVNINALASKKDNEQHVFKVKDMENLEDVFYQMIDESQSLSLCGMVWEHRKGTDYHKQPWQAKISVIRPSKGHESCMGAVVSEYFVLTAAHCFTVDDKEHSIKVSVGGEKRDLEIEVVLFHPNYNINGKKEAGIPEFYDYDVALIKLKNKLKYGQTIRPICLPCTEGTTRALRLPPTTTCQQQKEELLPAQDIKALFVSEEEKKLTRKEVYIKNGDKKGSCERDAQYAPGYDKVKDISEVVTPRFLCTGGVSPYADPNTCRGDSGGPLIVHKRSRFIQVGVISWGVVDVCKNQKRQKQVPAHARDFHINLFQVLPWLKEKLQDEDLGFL
Experimental: as §1, §17, §18, §19, §20

[6] = biological target: sheep lung lymph tryptase; test: Inactivation rate of sheep lung lymph tryptase; type: biochemical; conditions: Table III; 0.1M Hepes, 0.5M NaCl, pH 7.0, 25° C
Experimental: Inactivation rates of serine proteases by substituted isocoumarins were measured by the incubation method. An aliquot of inhibitor (25 or 50 μl) in Me2 SO was added to a buffered enzyme solution (0.01-2.3 μM) to initiate the inactivation. Aliquots (50 μl) were withdrawn at various intervals and the residual enzymatic activity was measured. […] 0.1 Hepes, 0.01M CaCl2, pH 7.5 buffer was utilized for trypsin and coagulation enzymes. […] The inhibitor concentrations are shown in all the tables. Peptide thioesters or peptide nitroanilides with appropriate sequence were used as substrates for various serine proteases.
as §10, §11

Row | SMILES | kinact/KI (bovine thrombin) [M⁻¹ s⁻¹] | kinact/KI (human thrombin) [M⁻¹ s⁻¹] | percentage of inhibition [1] [%] | kinact/KI (chymotrypsin) [M⁻¹ s⁻¹] | kinact/KI (cathepsin G) [M⁻¹ s⁻¹] | PT (pig plasma [3]) [s] | APTT (pig plasma [4]) [s] | also measured
1 | C[C@H](NC(=O)Nc1ccc2c(Cl)c(OCCSC(=N)N)oc(=O)c2c1)c1ccccc1 [S-C6 H5 (CH3)CHNHCONH-CiTEtOIC, 7-((S)-α-methylbenzylcarbamoylamino)-4-chloro-3-(2-isothiureidoethoxy)isocoumarin] | 41300 | 21000 | 21 | 260 | 35 | 30.0 | > 120 | kinact/KI ([2]; read-out: kobs/[I] (biphasic, first value)): 5100 M⁻¹ s⁻¹; kinact/KI ([2]; read-out: kobs/[I] (biphasic, second value)): 360 M⁻¹ s⁻¹; kinact/KI (human plasmin): 27800 M⁻¹ s⁻¹
2 | N=C(N)SCCOc1oc(=O)c2cc(NC(=O)NCc3ccccc3)ccc2c1Cl [PhCH2 NHCONH-CiTEtOIC, 7-(benzylcarbamoylamino)-4-chloro-3-(2-isothiureidoethoxy)isocoumarin] | 16800 | 11700 | – | – | – | 31.1 | > 120 | kinact/KI (human factor Xa): 2340 M⁻¹ s⁻¹; kinact/KI (human factor XIa): 105000 M⁻¹ s⁻¹; kinact/KI (human factor XIIa): 45000 M⁻¹ s⁻¹; kobs/[I] (human lung tryptase): 280,000 M^-1 s^-1; kinact/KI (rat skin tryptase): 200000 M⁻¹ s⁻¹; kinact/KI [5]: 19000 M⁻¹ s⁻¹
3 | N=C(N)c1ccc(CS(=O)(=O)F)cc1 [APMSF, 4-amidinophenylmethane sulfonyl fluoride, reference compound] | – | – | – | – | – | – | – | kobs/[I] (complement protein D): 110 M⁻¹ s⁻¹; inhibition of C2 (in words) (complement protein C2): do not show any inhibition; inhibition of protein B (in words) (complement protein B): do not show any inhibition; kobs/[I] [6]: 230 M⁻¹ s⁻¹
4 | C[C@@H](NC(=O)Nc1ccc2c(Cl)c(OCCSC(=N)N)oc(=O)c2c1)c1ccccc1 [R-C6 H5 (CH3)CHNHCONH-CiTEtOIC, 7-((R)-α-methylbenzylcarbamoylamino)-4-chloro-3-(2-isothiureidoethoxy)isocoumarin] | 29500 | 12000 | 9 | 360 | 145 | 26.2 | > 120 | percentage of inhibition ([2]; after 5 min incubation): 40%
